Row | melting point | SMILES
1 | 192 to 194 °C | CC(=O)N1CCC(Nc2ncc3c(N)cc(=O)n([C@@H]4CC[C@@H](O)C4)c3n2)CC1 (racemic) [Compound I-37, 2-(1-Acetyl-piperidin-4-ylamino)-5-amino-8-((1R,3R)-3-hydroxy-cyclopentyl)-8H-pyrido[2,3-d]pyrimidin-7-one]
2 | 160 to 161 °C | Cc1c(N)c2cnc(N[C@@H]3CCCC[C@@H]3C)nc2n(C2CCC2)c1=O (racemic) [Compound I-58, 5-Amino-8-cyclobutyl-6-methyl-2-((1R,2S)-2-methyl-cyclohexylamino)-8H-pyrido[2,3-d]pyrimidin-7-one]
3 | 209 to 210 °C | Cc1c(N)c2cnc(N[C@H]3CCCC[C@@H]3C)nc2n(C2CCC2)c1=O (racemic) [Compound I-60, 5-Amino-8-cyclobutyl-6-methyl-2-((1S,2S)-2-methyl-cyclohexylamino)-8H-pyrido[2,3-d]pyrimidin-7-one]
4 | 154.3 to 156 °C | COC(=O)N[C@H]1CC[C@H](Nc2ncc3c(N)cc(=O)n(C4CCC4)c3n2)CC1 [Compound I-2, [4-(5-Amino-8-cyclobutyl-7-oxo-7,8-dihydro-pyrido[2,3-d]pyrimidin-2-ylamino)-cyclohexyl]-carbamic acid methyl ester]
5 | 286 to 287 °C | Nc1c(F)c(=O)n(C2CCC2)c2nc(NC3CCCCC3)ncc12 [Compound I-4, 5-Amino-8-cyclobutyl-2-cyclohexylamino-6-fluoro-8H-pyrido[2,3-d]pyrimidin-7-one]
6 | 292 to 294 °C | Nc1cc(=O)n(C2CCCCC2)c2nc(N[C@H]3CC[C@H](O)CC3)ncc12 [Compound I-6, 5-Amino-8-cyclohexyl-2-(4-hydroxy-cyclohexylamino)-8H-pyrido[2,3-d]pyrimidin-7-one]
7 | 131 to 132.5 °C | Nc1cc(=O)n(CCCO)c2nc(NC3CCCCC3)ncc12 [Compound I-8, 5-Amino-2-cyclohexylamino-8-(3-hydroxy-propyl)-8H-pyrido[2,3-d]pyrimidin-7-one]
8 | 186.8 to 188 °C | Cc1c(N)c2cnc(N[C@H]3CC[C@H](C(=O)N4CCOCC4)CC3)nc2n(C2CCCC2)c1=O [Compound I-10, 5-Amino-8-cyclopentyl-6-methyl-2-[4-(morpholine-4-carbonyl)-cyclohexylamino]-8H-pyrido[2,3-d]pyrimidin-7-one]
9 | 172.6 to 176.6 °C | CC(=O)N[C@H]1CC[C@H](Nc2ncc3c(N)cc(=O)n(C4CCCC4)c3n2)CC1 [Compound I-11, N-[4-(5-Amino-8-cyclopentyl-7-oxo-7,8-dihydro-pyrido[2,3-d]pyrimidin-2-ylamino)-cyclohexyl]-acetamide]
10 | 133 to 135 °C | Nc1cc(=O)n(CC2CC2)c2nc(NC3CCCCC3)ncc12 [Compound I-12, 5-Amino-2-cyclohexylamino-8-cyclopropylmethyl-8H-pyrido[2,3-d]pyrimidin-7-one]
11 | 292.5 to 295.3 °C | Nc1cc(=O)n(C2CCCC2)c2nc(N[C@H]3CC[C@H](C(=O)N4CCOCC4)CC3)ncc12 [Compound I-13, 5-Amino-8-cyclopentyl-2-[4-(morpholine-4-carbonyl)-cyclohexylamino]-8H-pyrido[2,3-d]pyrimidin-7-one]
12 | > 300 °C | CS(=O)(=O)N[C@H]1CC[C@H](Nc2ncc3c(N)cc(=O)n(C4CCCCC4)c3n2)CC1 [Compound I-14, N-[4-(5-Amino-8-cyclohexyl-7-oxo-7,8-dihydro-pyrido[2,3-d]pyrimidin-2-ylamino)-cyclohexyl]-methanesulfonamide]
13 | 191.5 to 193 °C | Cc1c(N)c2cnc(N[C@H]3CC[C@H](C(=O)N4CCC(O)CC4)CC3)nc2n(C2CCC2)c1=O [Compound I-15, 5-Amino-8-cyclobutyl-2-[4-(4-hydroxy-piperidine-1-carbonyl)-cyclohexylamino]-6-methyl-8H-pyrido[2,3-d]pyrimidin-7-one]
14 | 175 to 176 °C | Nc1c(-c2ccccc2Cl)c(=O)n(C2CCC2)c2nc(NC3CCCCC3)ncc12 [Compound I-16, 5-Amino-6-(2-chloro-phenyl)-8-cyclobutyl-2-cyclohexylamino-8H-pyrido[2,3-d]pyrimidin-7-one]
15 | 125 to 130 °C | Nc1cc(=O)n(C2CCCC2)c2nc(NC3CCCCC3)ncc12 [Compound I-17, 5-Amino-2-cyclohexylamino-8-cyclopentyl-8H-pyrido[2,3-d]pyrimidin-7-one]
16 | 210 to 211.5 °C | CC(=O)N[C@H]1CC[C@H](Nc2ncc3c(N)cc(=O)n([C@@H]4CC[C@@H](O)C4)c3n2)CC1 [Compound I-18, N-{4-[5-Amino-8-((1R,3R)-3-hydroxy-cyclopentyl)-7-oxo-7,8-dihydro-pyrido[2,3-d]pyrimidin-2-ylamino]-cyclohexyl}-acetamide]
17 | 193.9 to 198 °C | COC(=O)N[C@H]1CC[C@H](Nc2ncc3c(N)cc(=O)n(C4CCCCC4)c3n2)CC1 [Compound I-19, [4-(5-Amino-8-cyclohexyl-7-oxo-7,8-dihydro-pyrido[2,3-d]pyrimidin-2-ylamino)-cyclohexyl]-carbamic acid methyl ester]
18 | 223 to 224.8 °C | Cc1c(N)c2cnc(N[C@H]3CC[C@H](C(C)(C)O)CC3)nc2n(C2CCC2)c1=O [Compound I-20, 5-Amino-8-cyclobutyl-2-[4-(1-hydroxy-1-methyl-ethyl)-cyclohexylamino]-6-methyl-8H-pyrido[2,3-d]pyrimidin-7-one]

Row | melting point | SMILES
19 | 147.7 to 150.1 °C | CCn1c(=O)cc(N)c2cnc(NC3CCCCC3)nc21 [Compound I-21, 5-Amino-2-cyclohexylamino-8-ethyl-8H-pyrido[2,3-d]pyrimidin-7-one]
20 | 256.3 to 258.7 °C | Nc1cc(=O)n(C2CC2)c2nc(N[C@H]3CC[C@H](O)CC3)ncc12 [Compound I-22, 5-Amino-8-cyclopropyl-2-(4-hydroxy-cyclohexylamino)-8H-pyrido[2,3-d]pyrimidin-7-one]
21 | > 300 °C | CCc1c(N)c2cnc(N[C@H]3CC[C@H](NC(C)=O)CC3)nc2n(C2CCCC2)c1=O [Compound I-23, N-[4-(5-Amino-8-cyclopentyl-6-ethyl-7-oxo-7,8-dihydro-pyrido[2,3-d]pyrimidin-2-ylamino)-cyclohexyl]-acetamide]
22 | 260 to 261 °C | Cc1c(N)c2cnc(N[C@H]3CC[C@H](N(C)S(C)(=O)=O)CC3)nc2n(C2CCC2)c1=O [Compound I-24, N-[4-(5-Amino-8-cyclobutyl-6-methyl-7-oxo-7,8-dihydro-pyrido[2,3-d]pyrimidin-2-ylamino)-cyclohexyl]-N-methyl-methanesulfonamide]
23 | 170 to 171 °C | CC(C)c1c(N)c2cnc(N[C@H]3CC[C@H](C(=O)N4CCC(O)CC4)CC3)nc2n(C2CCC2)c1=O [Compound I-25, 5-Amino-8-cyclobutyl-2-[4-(4-hydroxy-piperidine-1-carbonyl)-cyclohexylamino]-6-isopropyl-8H-pyrido[2,3-d]pyrimidin-7-one]
24 | 117 to 118 °C | Nc1cc(=O)n(C2CC2)c2nc(NC3CCCCC3)ncc12 [Compound I-26, 5-Amino-2-cyclohexylamino-8-cyclopropyl-8H-pyrido[2,3-d]pyrimidin-7-one]
25 | 250 to 254 °C | CS(=O)(=O)N1CCC(Nc2ncc3c(N)cc(=O)n(C4CCCCC4)c3n2)CC1 [Compound I-29, 5-Amino-8-cyclohexyl-2-(1-methanesulfonyl-piperidin-4-ylamino)-8H-pyrido[2,3-d]pyrimidin-7-one]
26 | 282 to 285 °C | CC(=O)N1CCC(Nc2ncc3c(N)cc(=O)n(C4CCCC4)c3n2)CC1 [Compound I-30, 2-(1-Acetyl-piperidin-4-ylamino)-5-amino-8-cyclopentyl-8H-pyrido[2,3-d]pyrimidin-7-one]
27 | 160 to 161 °C | Nc1c(-c2ccccc2)c(=O)n(C2CCC2)c2nc(NC3CCCCC3)ncc12 [Compound I-31, 5-Amino-8-cyclobutyl-2-cyclohexylamino-6-phenyl-8H-pyrido[2,3-d]pyrimidin-7-one]
28 | 243.1 to 244.9 °C | Nc1cc(=O)n(C2CCCCC2)c2nc(NC3CCCCC3)ncc12 [Compound I-32, 5-Amino-8-cyclohexyl-2-cyclohexylamino-8H-pyrido[2,3-d]pyrimidin-7-one]
29 | 120 to 124 °C | Nc1cc(=O)n(C2CCCC2)c2nc(NC3CCOCC3)ncc12 [Compound I-33, 5-Amino-8-cyclopentyl-2-(tetrahydro-pyran-4-ylamino)-8H-pyrido[2,3-d]pyrimidin-7-one]
30 | 209 to 210 °C | Cc1c(N)c2cnc(N[C@@H]3CCCC[C@H]3C)nc2n(C2CCC2)c1=O [Compound I-34, 5-Amino-8-cyclobutyl-6-methyl-2-((1R,2R)-2-methyl-cyclohexylamino)-8H-pyrido[2,3-d]pyrimidin-7-one]
31 | 229.8 to 230.5 °C | CCc1c(N)c2cnc(NC3CCCCC3)nc2n(C2CCCC2)c1=O [Compound I-36, 5-Amino-2-cyclohexylamino-8-cyclopentyl-6-ethyl-8H-pyrido[2,3-d]pyrimidin-7-one]
32 | > 300 °C | N#Cc1c(N)c2cnc(N[C@H]3CC[C@H](C(=O)N4CCC(O)CC4)CC3)nc2n(C2CCC2)c1=O [Compound I-38, 5-Amino-8-cyclobutyl-2-[4-(4-hydroxy-piperidine-1-carbonyl)-cyclohexylamino]-7-oxo-7,8-dihydro-pyrido[2,3-d]pyrimidine-6-carbonitrile]
33 | 257 to 259 °C | COC(=O)N[C@H]1CC[C@H](Nc2ncc3c(N)cc(=O)n(C4CC4)c3n2)CC1 [Compound I-39, [4-(5-Amino-8-cyclopropyl-7-oxo-7,8-dihydro-pyrido[2,3-d]pyrimidin-2-ylamino)-cyclohexyl]-carbamic acid methyl ester]
34 | 265.3 to 267 °C | Cc1c(N)c2cnc(NC3CCN(S(C)(=O)=O)CC3)nc2n(C2CCC2)c1=O [Compound I-40, 5-Amino-8-cyclobutyl-2-(1-methanesulfonyl-piperidin-4-ylamino)-6-methyl-8H-pyrido[2,3-d]pyrimidin-7-one]
35 | 296.2 to 298.2 °C | CC(=O)N[C@H]1CC[C@H](Nc2ncc3c(N)c(C)c(=O)n(C4CCCC4)c3n2)CC1 [Compound I-41, N-[4-(5-Amino-8-cyclopentyl-6-methyl-7-oxo-7,8-dihydro-pyrido[2,3-d]pyrimidin-2-ylamino)-cyclohexyl]-acetamide]

From patent US8268840B2, “Pyrimidinyl pyridone inhibitors of kinases” (Roche Palo Alto LLC, priority 2008, dated 2012)
